Measured values from PMC10503797, “Allosteric modulator potentiates β2AR agonist–promoted bronchoprotection in asthma models” (The Journal of Clinical Investigation, 2023).
Several values for one entry are separate records, joined by “and”; a condition that tells them apart may be missing. Equal entries are not always repeated.

Assays:
[1] = test system: lung slices obtained from ovalbumin-sensitized guinea pigs; test: Ovalbumin-induced airway constriction in lung slices from ovalbumin-sensitized guinea pigs; format: cell-based, guinea pig; conditions: 1 µM Fenoterol, Exp1-5
From the text: All curve fits were generated using the software program GraphPad Prism. Data are represented as mean ± SEM of 4–5 guinea pigs (see Table 2 for statistical analyses).
Outbred, male, specified pathogen-free Dunkin Hartley guinea pigs (Charles River Laboratory) weighing 200 to 400 g were used. The animals were housed in pairs under a 12-hour light/dark cycle in a temperature- and humidity-controlled room with food and tap water ad libitum. For studies in the guinea pig model of allergic asthma, animals were actively IgE-sensitized to ovalbumin by injecting a suspension containing 100 μg/mL ovalbumin and 100 mg/mL Al(OH)3 in saline. Each animal was injected with 1.0 mL of suspension: 0.5 mL was injected i.p. and 0.5 mL was divided over 7 s.c. sites close to lymph nodes in the neck, paws, and lumbar regions ([24]). Animals were euthanized at least 4 weeks after sensitization.
Precision-cut lung slices were prepared as described previously ([61], [62]). A 3% solution of low melting-point agarose (Gerbu Biotechnik GmbH) in ultrapure water was prepared by heating it a microwave until fully dissolved. […] After filling, the lungs were covered with ice for 30 minutes to solidify the agarose for slicing. […] Lung slices were cut at a thickness of 500 μm and washed several times with slicing buffer to remove debris and washout the isoproterenol. Slices were incubated overnight in a 60 mm dish in sterile incubation buffer: MEM composed of lung slice buffer supplemented with 0.5 mM sodium pyruvate, 1 mM glutamine (Gibco), MEM-amino acids mixture (1:50), MEM-vitamins mixture (1:100; Gibco), and penicillin-streptomycin (1:100; Gibco), pH = 7.2, at 37°C in a CO2- and humidity-controlled atmosphere.
After washing the slices in medium, individual guinea pig lung slices were mechanically maintained with a Teflon ring with an inner diameter of 7 mm and covered with 1 mL of incubation buffer. […] Image acquisition software (NIS-Elements, Nikon) was used to quantify airway luminal area. Images of the airways were acquired every 2 seconds during the whole course of the experiment, starting 2 minutes before the addition of any agent to allow for baseline measurements of the airway caliber. For each methacholine or ovalbumin concentration, the maximal airway constriction was expressed as percentage of the initial (baseline) airway luminal area and plotted against that concentration.

human lung slices = test: Methacholine-induced airway constriction in human lung slices; format: cell-based; conditions: for MCh-induced airway constriction response (Figure 7): donor 1-4
From the text: All curve fits were generated using the software program GraphPad Prism. Data are represented as mean ± SEM of 4 human donors (see Table 3 for statistical analyses).
Precision-cut human lung slices were purchased from AnaBios and stored in a liquid nitrogen tank. Lung tissue was obtained postmortem and consent for research was obtained by AnaBios for all donors. Characteristics of the donors of the lung tissue are shown in Supplemental Table 2. Slices were rapidly thawed following instructions from AnaBios.
After washing, individual human lung slices were mechanically maintained with a Teflon ring with an inner diameter of 7 mm and covered with 1 mL of incubation buffer. […] Image acquisition software (NIS-Elements, Nikon) was used to quantify airway luminal area. […] Airway constriction in response to each methacholine concentration was expressed as percentage of the initial airway luminal area.

guinea pig β2AR = guinea pig β2AR (Cavia porcellus, UniProt Q8K4Z4); test: 125I-CYP radioligand competition binding, guinea pig β2AR; conditions: DMSO, listed as FEN
Chain of guinea pig β2AR (Q8K4Z4 whole entry): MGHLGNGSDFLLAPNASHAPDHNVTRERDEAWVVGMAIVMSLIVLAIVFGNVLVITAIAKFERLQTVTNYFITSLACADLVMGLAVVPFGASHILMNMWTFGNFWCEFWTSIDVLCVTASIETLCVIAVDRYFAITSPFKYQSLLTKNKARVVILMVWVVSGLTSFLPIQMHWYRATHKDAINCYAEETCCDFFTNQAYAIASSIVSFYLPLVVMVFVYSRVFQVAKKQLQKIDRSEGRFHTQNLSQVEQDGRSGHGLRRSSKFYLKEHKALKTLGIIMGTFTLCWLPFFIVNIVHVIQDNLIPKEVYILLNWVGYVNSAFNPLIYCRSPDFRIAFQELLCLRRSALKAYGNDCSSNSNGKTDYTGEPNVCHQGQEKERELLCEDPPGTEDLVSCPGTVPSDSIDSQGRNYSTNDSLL

CC(Cc1ccc(O)cc1)NCC(O)c1cc(O)cc(O)c1 (stereo not drawn) [Fenoterol, fenoterol]
OVA-induced airway constriction response (Figure 6) ([1]; [OVA] 100000 ng/ml): 91.8 and 92.1 and 100.5 and 99.1 and 87.0 | OVA-induced airway constriction response (Figure 6) ([1]; [OVA] 1000000 ng/ml): 92.1 and 93.3 and 97.5 and 83.9 | MCh-induced airway constriction response (Figure 7) (human lung slices; 1 µM Fenoterol, -Log [MCh] 3.5): 66.3 and 38.1 and 61.4 and 57.2 | MCh-induced airway constriction response (Figure 7) (human lung slices; 1 µM Fenoterol, -Log [MCh] 4): 66.7 and 40.2 and 56.4 and 59 | MCh-induced airway constriction response (Figure 7) (human lung slices; 1 µM Fenoterol, -Log [MCh] 4.5): 64.6 and 41.7 and 58.9 and 57.8 | MCh-induced airway constriction response (Figure 7) (human lung slices; 1 µM Fenoterol, -Log [MCh] 5): 64.0 and 44.2 and 53.4 and 60.0 | MCh-induced airway constriction response (Figure 7) (human lung slices; 1 µM Fenoterol, -Log [MCh] 5.5): 70.0 and 50.2 and 57.7 and 59.1 | MCh-induced airway constriction response (Figure 7) (human lung slices; 1 µM Fenoterol, -Log [MCh] 6): 78.6 and 52.9 and 60.3 and 62.9 | MCh-induced airway constriction response (Figure 7) (human lung slices; 1 µM Fenoterol, -Log [MCh] 6.5): 78.2 and 58.1 and 66.2 and 68.4 | MCh-induced airway constriction response (Figure 7) (human lung slices; 1 µM Fenoterol, -Log [MCh] 7): 83.5 and 66.4 and 73.5 and 75.0 | MCh-induced airway constriction response (Figure 7) (human lung slices; 1 µM Fenoterol, -Log [MCh] 7.5): 90.1 and 68.0 and 78.3 and 79.7 | MCh-induced airway constriction response (Figure 7) (human lung slices; 1 µM Fenoterol, -Log [MCh] 8): 97.8 and 78.9 and 83.6 and 92.0 | MCh-induced airway constriction response (Figure 7) (human lung slices; 1 µM Fenoterol, -Log [MCh] 8.5): 89.0 and 94.8 and 96.5 | MCh-induced airway constriction response (Figure 7) (human lung slices; 1 µM Fenoterol, -Log [MCh] 9): 100.2 and 93.5 and 97.1 and 98.8 | Airway luminal area at the highest methacholine concentration (human lung slices; 1 μM fenoterol): 55.7% ± 6.2% | MCh-induced airway constriction response (Figure 7) (human lung slices; 10 µM Fenoterol, -Log [MCh] 3.5): 79.8 and 72.5 and 79.3 and 86.4 | MCh-induced airway constriction response (Figure 7) (human lung slices; 10 µM Fenoterol, -Log [MCh] 4): 80.3 and 75.3 and 80 and 86.3 | MCh-induced airway constriction response (Figure 7) (human lung slices; 10 µM Fenoterol, -Log [MCh] 4.5): 83.8 and 75.6 and 80.1 and 86.9 | MCh-induced airway constriction response (Figure 7) (human lung slices; 10 µM Fenoterol, -Log [MCh] 5): 91.0 and 83.4 and 80.2 and 86.4 | MCh-induced airway constriction response (Figure 7) (human lung slices; 10 µM Fenoterol, -Log [MCh] 5.5): 98.1 and 86.0 and 82.0 and 87.9 | MCh-induced airway constriction response (Figure 7) (human lung slices; 10 µM Fenoterol, -Log [MCh] 6): 99.0 and 86.3 and 86.9 and 91.9 | MCh-induced airway constriction response (Figure 7) (human lung slices; 10 µM Fenoterol, -Log [MCh] 6.5): 99.5 and 90.2 and 90.4 and 97.1 | MCh-induced airway constriction response (Figure 7) (human lung slices; 10 µM Fenoterol, -Log [MCh] 7): 99.7 and 93.0 and 91.3 and 96.6 | MCh-induced airway constriction response (Figure 7) (human lung slices; 10 µM Fenoterol, -Log [MCh] 7.5): 94.8 and 96.0 and 99.4 | MCh-induced airway constriction response (Figure 7) (human lung slices; 10 µM Fenoterol, -Log [MCh] 8): 101.4 and 95.9 and 99.4 and 100.7 | MCh-induced airway constriction response (Figure 7) (human lung slices; 10 µM Fenoterol, -Log [MCh] 8.5): 103.2 and 98.6 and 100.6 and 95.6 | MCh-induced airway constriction response (Figure 7) (human lung slices; 10 µM Fenoterol, -Log [MCh] 9): 100.3 and 99.4 and 101.1 and 99.5 | Airway luminal area at the highest methacholine concentration (human lung slices; 10 μM fenoterol): 79.5% ± 2.8% | EC50 (human lung slices; Homo sapiens, read-out: MCh pD2, 10 μM Fenoterol (converted)): 1700 nM | 125I-CYP binding, FEN competition curve (Figure 4D) (guinea pig β2AR; Log [FEN] (M) -4.49485): 3.006 and 3.081 and 4.379 and 2.482 | 125I-CYP binding, FEN competition curve (Figure 4D) (guinea pig β2AR; Log [FEN] (M) -5.09691): 10.5632 and 11.6008 and 14.5744 and 11.1845 | 125I-CYP binding, FEN competition curve (Figure 4D) (guinea pig β2AR; Log [FEN] (M) -5.69897): 27.5943 and 31.6003 and 36.8549 and 31.4566 | 125I-CYP binding, FEN competition curve (Figure 4D) (guinea pig β2AR; Log [FEN] (M) -6.30103): 58.2352 and 64.6742 and 67.2527 and 62.2696 | 125I-CYP binding, FEN competition curve (Figure 4D) (guinea pig β2AR; Log [FEN] (M) -6.90309): 83.5341 and 84.3533 and 88.9652 and 87.8637 | 125I-CYP binding, FEN competition curve (Figure 4D) (guinea pig β2AR; Log [FEN] (M) -7.50515): 93.701 and 97.0547 and 97.6505 and 97.0492 | 125I-CYP binding, FEN competition curve (Figure 4D) (guinea pig β2AR; Log [FEN] (M) -8.10721): 100.713 and 99.5295 and 100.092 | 125I-CYP binding, FEN competition curve (Figure 4D) (guinea pig β2AR; Log [FEN] (M) -8.70927): 98.7203 and 100.799 and 100.482 | 125I-CYP binding, FEN competition curve (Figure 4D) (guinea pig β2AR; Log [FEN] (M) -9.31133): 101.392 and 100.992 and 100.128 | 125I-CYP binding, FEN competition curve (Figure 4D) (guinea pig β2AR; Log [FEN] (M) -9.91339): 99.9817 and 101.061 and 100.058 and 101.342
